Data: ChEMBL document CHEMBL4616632, “Discovery of Cyclic Boronic Acid QPX7728, an Ultrabroad-Spectrum Inhibitor of Serine and Metallo-β-lactamases” (J Med Chem, 2020)

Assays:
[1] = Inhibition of recombinant Escherichia coli CTX-M-14 using nitrocefin as substrate preincubated for 10 mins followed by substrate addition measured every 10 secs for 10 mins by spectrophotometrically analysis
[2] = Lipophilicity, log D of the compound at pH 7.4; format: physicochemical; details: buffer
[3] = AUC in rat at 10 mg/kg, iv administered as infusion for 0.5 hrs by HPLC/MS analysis; format: ADME, organism-based; details: in vivo
[4] = Inhibition of recombinant Escherichia coli SHV-12 using nitrocefin as substrate preincubated for 10 mins followed by substrate addition measured every 10 secs for 10 mins by spectrophotometrically analysis
Klebsiella pneumoniae [5] = test: Potentiation of meropenem-induced antibacterial activity in Klebsiella pneumoniae KP1244 by measuring meropenem MIC at 8 ug/ml by broth microdilution method (Rvb >64 ug/ml); format: functional
Pseudomonas aeruginosa [6] = test: Potentiation of cefepime-induced antibacterial activity against Pseudomonas aeruginosa assessed as cefepime MIC90 at 8 ug/ml by broth microdilution method (Rvb 32 ug/ml); format: functional
Pseudomonas aeruginosa [7] = test: Potentiation of meropenem-induced antibacterial activity against Pseudomonas aeruginosa assessed as meropenem MIC90 at 8 ug/ml by broth microdilution method (reference value: 16 ug/ml); format: functional
Acinetobacter baumannii [8] = test: Potentiation of cefepime-induced antibacterial activity against carbapenem-resistant Acinetobacter baumannii assessed as cefepime MIC90 at 8 ug/ml by broth microdilution method (Rvb > 32 ug/ml); format: functional
Acinetobacter baumannii [9] = test: Potentiation of ceftolozane-induced antibacterial activity against carbapenem-resistant Acinetobacter baumannii assessed as ceftolozane MIC90 at 8 ug/ml by broth microdilution method (Rvb > 32 ug/ml); format: functional
Klebsiella pneumoniae [10] = test: Potentiation of meropenem-induced bacteriostatic activity against carbapenem-resistant Klebsiella pneumoniae KP1244 harboring KPC-3, SHV-11, and SHV-12 infected in Swiss-Webster mouse model of neutropenic thigh infection assessed as log change in bacterial count in thigh at 1 mg/kg, ip administered at 2 hrs interval for 24 hrs starting from 2 hr post infection and measured post last dose (reference value: 0.62 log10CFU); format: functional
Neutrophil elastase = Neutrophil elastase (Homo sapiens, UniProt P08246); test: Inhibition of mammalian neutrophil elastase (unknown origin) using MeOSuc-AAVP-AMC as substrate preincubated for 10 mins followed by substrate addition measured after 30 mins
Klebsiella pneumoniae [11] = test: Potentiation of meropenem-induced bacteriostatic activity against carbapenem-resistant Klebsiella pneumoniae KP1244 harboring KPC-3, SHV-11, and SHV-12 infected in Swiss-Webster mouse model of neutropenic thigh infection assessed as log change in bacterial count in thigh at 10 mg/kg, ip administered at 2 hrs interval for 24 hrs starting from 2 hr post infection and measured post last dose (reference value: 0.62 log10CFU); format: functional
Enterobacteriaceae [12] = test: Inhibition of OXA-48 in carbapenem-resistant Enterobacteriaceae assessed as potentiation of ceftolozane-induced antibacterial activity by measuring ceftolozane MIC90 at 8 ug/ml by broth microdilution method (Rvb > 32 ug/ml)
[13] = Oral bioavailability in rat at 300 to 1000 mg/kg in fasted condition by HPLC/MS analysis; format: ADME, organism-based; details: in vivo
Klebsiella pneumoniae [14] = test: Potentiation of meropenem-induced bacteriostatic activity against carbapenem-resistant Klebsiella pneumoniae KP1244 harboring KPC-3, SHV-11, and SHV-12 infected in Swiss-Webster mouse model of neutropenic thigh infection assessed as log change in bacterial count in thigh at 50 mg/kg, ip administered at 2 hrs interval for 24 hrs starting from 2 hr post infection and measured post last dose (reference value: 0.62 log10CFU); format: functional
[15] = biological target: Beta-lactamase (Klebsiella pneumoniae) (UniProt Q93LQ9); test: Inhibition of Klebsiella pneumoniae KP1004 KPC-2 assessed as minimum concentration of compound needed to reduce the MIC of aztreonam to 4 ug/ml
Interstitial collagenase = Interstitial collagenase (Homo sapiens, UniProt P03956); test: Inhibition of mammalian MMP-1 (unknown origin) using McaPLGLDpaAR-NH2 as substrate preincubated for 10 mins followed by substrate addition measured after 30 mins
Enterobacteriaceae [16] = test: Inhibition of NDM/VIM in carbapenem-resistant Enterobacteriaceae assessed as potentiation of meropenem-induced antibacterial activity by measuring meropenem MIC90 at 8 ug/ml by broth microdilution method (Rvb > 32 ug/ml)
Enterobacteriaceae [17] = test: Inhibition of OXA-48 in carbapenem-resistant Enterobacteriaceae assessed as potentiation of ceftolozane-induced antibacterial activity by measuring ceftolozane MIC50 at 8 ug/ml by broth microdilution method (Rvb > 32 ug/ml)
Enterobacteriaceae [18] = test: Potentiation of ceftolozane-induced antibacterial activity against carbapenem-resistant Enterobacteriaceae assessed as ceftolozane MIC90 at 8 ug/ml by broth microdilution method (Rvb > 32 ug/ml); format: functional
[19] = Clearance in rat at 300 mg/kg, po administered via gavage by HPLC/MS analysis; format: ADME, organism-based; details: in vivo
Klebsiella pneumoniae [20] = test: Inhibition of Klebsiella pneumoniae KP1009 CTX-M-15 assessed as minimum concentration of compound required to reduce the MIC of aztreonam to 4 ug/ml
[21] = biological target: Beta-lactamase OXA-23 (Acinetobacter baumannii) (UniProt Q9L4P2); test: Inhibition of Acinetobacter baumannii AB1054 OXA-23 assessed as minimum concentration of compound needed to reduce the MIC of meropenem to 8 ug/ml
Acinetobacter baumannii [22] = test: Potentiation of meropenem-induced antibacterial activity against carbapenem-resistant Acinetobacter baumannii assessed as meropenem MIC50 at 8 ug/ml by broth microdilution method (Rvb > 32 ug/ml); format: functional
[23] = Clearance in rat at 30 mg/kg, po administered via gavage by HPLC/MS analysis; format: ADME, organism-based; details: in vivo
[24] = Cmax in rat at 100 mg/kg, iv administered as infusion for 0.5 hrs by HPLC/MS analysis; format: ADME, organism-based; design: dose 100 mg/kg, route intravenous; details: in vivo
[25] = Cmax in rat at 300 mg/kg, po administered via gavage by HPLC/MS analysis; format: ADME, organism-based; design: dose 300 mg/kg, route oral; details: in vivo
[26] = Inhibition of […] OXA-48 using nitrocefin as substrate preincubated for 10 mins followed by substrate addition measured every 10 secs for 10 mins by spectrophotometrically analysis
Enterobacteriaceae [27] = test: Inhibition of OXA-48 in carbapenem-resistant Enterobacteriaceae assessed as potentiation of meropenem-induced antibacterial activity by measuring meropenem MIC50 at 8 ug/ml by broth microdilution method (reference value: 32 ug/ml)
Klebsiella pneumoniae [28] = test: Potentiation of cefepime-induced antibacterial activity against carbapenem-resistant Klebsiella pneumoniae assessed as cefepime MIC50 at 8 ug/ml by broth microdilution method (reference value: 32 ug/ml); format: functional
Chymase = Chymase (Homo sapiens, UniProt P23946); test: Inhibition of mammalian chymase (unknown origin) using Suc-AAPF-AMC as substrate preincubated for 10 mins followed by substrate addition measured after 30 mins
[29] = Clearance in rat at 10 mg/kg, iv administered as infusion for 0.5 hrs by HPLC/MS analysis; format: ADME, organism-based; details: in vivo
Pseudomonas aeruginosa [30] = test: Potentiation of cefepime-induced antibacterial activity against Pseudomonas aeruginosa assessed as cefepime MIC50 at 8 ug/ml by broth microdilution method (reference value: 4 ug/ml); format: functional

Sequence of Beta-lactamase OXA-23 (Acinetobacter baumannii) (Q9L4P2 whole entry): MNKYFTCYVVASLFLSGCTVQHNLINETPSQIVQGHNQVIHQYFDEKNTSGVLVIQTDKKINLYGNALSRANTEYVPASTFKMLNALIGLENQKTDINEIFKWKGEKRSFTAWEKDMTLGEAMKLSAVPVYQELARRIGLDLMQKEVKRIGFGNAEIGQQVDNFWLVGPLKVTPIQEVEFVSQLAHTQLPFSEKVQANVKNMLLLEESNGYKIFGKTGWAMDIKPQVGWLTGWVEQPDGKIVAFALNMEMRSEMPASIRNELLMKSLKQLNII
Sequence of Chymase (P23946 whole entry, the tested form may be a part): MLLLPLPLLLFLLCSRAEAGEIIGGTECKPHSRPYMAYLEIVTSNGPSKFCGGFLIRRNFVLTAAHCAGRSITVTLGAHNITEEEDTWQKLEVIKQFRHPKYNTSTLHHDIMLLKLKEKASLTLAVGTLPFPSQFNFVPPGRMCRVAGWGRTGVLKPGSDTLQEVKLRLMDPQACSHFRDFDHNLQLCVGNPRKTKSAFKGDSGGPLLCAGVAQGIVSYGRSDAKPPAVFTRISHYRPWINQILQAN
Sequence of Neutrophil elastase (P08246 whole entry): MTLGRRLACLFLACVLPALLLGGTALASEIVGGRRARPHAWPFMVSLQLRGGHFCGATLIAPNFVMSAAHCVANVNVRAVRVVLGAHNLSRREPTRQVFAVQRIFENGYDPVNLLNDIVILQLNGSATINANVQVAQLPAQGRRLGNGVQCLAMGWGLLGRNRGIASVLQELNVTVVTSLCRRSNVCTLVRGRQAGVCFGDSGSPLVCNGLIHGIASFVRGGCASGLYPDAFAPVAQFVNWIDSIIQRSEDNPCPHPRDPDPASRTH
Sequence of Beta-lactamase (Klebsiella pneumoniae) (Q93LQ9 as listed by the source): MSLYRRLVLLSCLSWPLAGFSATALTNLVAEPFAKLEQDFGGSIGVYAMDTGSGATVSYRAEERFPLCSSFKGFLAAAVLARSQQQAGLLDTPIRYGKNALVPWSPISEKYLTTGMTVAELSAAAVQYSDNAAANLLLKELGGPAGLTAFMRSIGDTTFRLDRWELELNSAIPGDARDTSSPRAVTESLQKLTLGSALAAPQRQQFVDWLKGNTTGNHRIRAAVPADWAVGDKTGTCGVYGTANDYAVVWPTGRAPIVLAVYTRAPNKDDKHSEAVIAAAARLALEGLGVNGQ
Sequence of Interstitial collagenase (P03956 whole entry): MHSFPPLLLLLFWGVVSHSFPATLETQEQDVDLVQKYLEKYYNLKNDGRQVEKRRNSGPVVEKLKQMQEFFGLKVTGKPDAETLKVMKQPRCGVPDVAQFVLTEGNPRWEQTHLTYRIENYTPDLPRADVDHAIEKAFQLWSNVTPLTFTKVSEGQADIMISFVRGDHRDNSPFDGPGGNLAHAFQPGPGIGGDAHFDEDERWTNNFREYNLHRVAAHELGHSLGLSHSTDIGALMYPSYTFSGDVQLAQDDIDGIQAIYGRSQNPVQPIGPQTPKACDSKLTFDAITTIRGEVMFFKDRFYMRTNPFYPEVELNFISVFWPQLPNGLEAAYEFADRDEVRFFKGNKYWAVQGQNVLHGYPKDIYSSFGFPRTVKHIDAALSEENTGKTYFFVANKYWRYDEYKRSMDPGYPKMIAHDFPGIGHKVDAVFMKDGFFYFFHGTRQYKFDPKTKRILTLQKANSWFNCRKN

## O=C(O)c1c(F)ccc2c1OB(O)[C@@H]1C[C@H]21 [XERUBORBACTAM]
[1]
  Ki: 0.00029 µM
[2]
  logD: -2.85
[3]
  AUC at 0.5 h: 35200 ng·h/mL
[4]
  Ki: 0.00074 µM
Klebsiella pneumoniae [5]
  MIC: 0.25 µg/mL
Pseudomonas aeruginosa [6]
  MIC90: 8 µg/mL
Pseudomonas aeruginosa [7]
  MIC90: 8 µg/mL
Acinetobacter baumannii [8]
  MIC90: 32 µg/mL
Acinetobacter baumannii [9]
  MIC90: 32 µg/mL
Klebsiella pneumoniae [10]
  Activity: -0.42 log10CFU
Neutrophil elastase
  IC50: 132 µM
Klebsiella pneumoniae [11]
  Activity: -1.66 log10CFU
Enterobacteriaceae [12]
  MIC90: 0.5 µg/mL
[13]
  bioavailability: 24 to 28%
Klebsiella pneumoniae [14]
  Activity: -2.26 log10CFU
[15]
  MEC: 0.3 µg/mL
Interstitial collagenase
  IC50: > 1000 µM
Enterobacteriaceae [16]
  MIC90: 2 µg/mL
Enterobacteriaceae [17]
  MIC50: 0.25 µg/mL
Enterobacteriaceae [18]
  MIC90: 1 µg/mL
[19]
  CL/F: 28.5 mL/min/kg
Klebsiella pneumoniae [20]
  MEC: 0.3 µg/mL
[21]
  MEC: 1.25 µg/mL
Acinetobacter baumannii [22]
  MIC50: 0.5 µg/mL
[23]
  CL/F: 15.2 mL/min/kg
[24]
  Cmax: 208 µg/mL
[25]
  Cmax: 52 µg/mL
[26]
  Ki: 0.00028 µM
Enterobacteriaceae [27]
  MIC50: < 0.06 µg/mL
Klebsiella pneumoniae [28]
  MIC50: ≤ 0.06 µg/mL
Chymase
  IC50: > 1000 µM
[29]
  clearance: 4.83 mL/min/kg
Pseudomonas aeruginosa [30]
  MIC50: 2 µg/mL
